From patent publication US10899769B2, “Imidazopiperazinone inhibitors of transcription activating proteins” (Board of Regents, The University of Texas System, priority 2018, dated 2021)

Columns and labels:
[1] = target: GST-CBP(1081-1197) bromodomain (Homo sapiens (Human), UniProt Q92793); assay: CBP AlphaScreen Assay; conditions: binding to biotin-H4(1-21) Ac-K5/8/12/16
How it was run: (§1)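 AlphaScreen binding of GST-bromodomain to biotin-H4(1-21) Ac-K5/8/12/16: 5 nM CBP with 20 nM peptide, or 2.5 nM BRD4 with 10 nM peptide, in 50 mM HEPES 7.5, […], 1 mM TCEP, 0.003% Tween-20. Compound preincubated 30 min, then beads 2 h, room temperature. IC50 from variable-slope fit.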

BRD4(49-170) bromodomain = BRD4(49-170) bromodomain (Homo sapiens (Human), UniProt O60885); assay: BRD4 AlphaScreen Assay; conditions: binding to biotin-H4(1-21) Ac-K5/8/12/16
How it was run: as §1

Sequence of GST-CBP(1081-1197) bromodomain (Q92793 1081-1197): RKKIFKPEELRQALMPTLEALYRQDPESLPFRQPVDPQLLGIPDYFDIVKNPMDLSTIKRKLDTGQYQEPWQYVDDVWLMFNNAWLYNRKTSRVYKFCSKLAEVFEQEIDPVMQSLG

| IC50 [1] | IC50 (BRD4(49-170) bromodomain) | Structure (SMILES) |
| --- | --- | --- |
| 153 nM | 9630 nM | CC1C(=O)N(C)Cc2c(-c3cccc4nc(-c5cnn(C)c5)c(C(F)F)cc34)nc(C3CCN(CCF)CC3)n21 (centres unmarked) [Example 81, 1-(3-(difluoromethyl)-2-(1-methyl-1H-pyrazol-4-yl)quinolin-5-yl)-3-(1-(2-fluoroethyl)piperidin-4-yl)-5,7-dimethyl-7,8-dihydroimidazo[1,5-a] pyrazin-6(5H)-one] |
| 227 nM | 12300 nM | COCCN1CCC(c2nc(-c3cccc4nc(-c5cnn(C)c5)c(C(F)F)cc34)c3n2C(C)C(=O)N(C)C3)CC1 (centres unmarked) [Example 82, 1-(3-(difluoromethyl)-2-(1-methyl-1H-pyrazol-4-yl)quinolin-5-yl)-3-(1-(2-methoxyethyl)piperidin-4-yl)-5,7-dimethyl-7,8-dihydroimidazo[1,5-a] pyrazin-6(5H)-one] |
| 42 nM | 3230 nM | CC1C(=O)N(C)Cc2c(-c3cccc4nc(-c5cnn(C)c5)c(C(F)F)cc34)nc(C3CCN(S(C)(=O)=O)CC3)n21 (centres unmarked) [Example 83, 1-(3-(difluoromethyl)-2-(1-methyl-1H-pyrazol-4-yl)quinolin-5-yl)-5,7-dimethyl-3-(1-(methylsulfonyl)piperidin-4-yl)-7,8-dihydroimidazo[1,5-a] pyrazin-6(5H)-one] |
| 230 nM | 11700 nM | CC1C(=O)N(C)Cc2c(-c3cccc4nc(-c5cnn(C)c5)c(C(F)F)cc34)nc(C3CCN(CCO)CC3)n21 (centres unmarked) [Example 84, 1-(3-(difluoromethyl)-2-(1-methyl-1H-pyrazol-4-yl)quinolin-5-yl)-3-(1-(2-hydroxyethyl)piperidin-4-yl)-5,7-dimethyl-7,8-dihydroimidazo[1,5-a] pyrazin-6(5H)-one] |
| 78 nM | 24100 nM | CC1C(=O)N(C)Cc2c(-c3cccc4cc(-c5ccn(C)n5)ncc34)nc(C3CCOCC3)n21 (centres unmarked) [Example 85, 5,7-dimethyl-1-(3-(1-methyl-1H-pyrazol-3-yl)isoquinolin-8-yl)-3-(tetrahydro-2H-pyran-4-yl)-7,8-dihydroimidazo[1,5-a] pyrazin-6(5H)-one] |
| 1 nM | 232 nM | CC1C(=O)N(C)Cc2c(-c3cccc4cc(-c5ccn(C)n5)ncc34)nc(C3CCOCC3)n21 (centres unmarked) [Example 86, 5,7-dimethyl-1-(3-(1-methyl-1H-pyrazol-3-yl)isoquinolin-8-yl)-3-(tetrahydro-2H-pyran-4-yl)-7,8-dihydroimidazo[1,5-a] pyrazin-6(5H)-one] |
| 77 nM | 10700 nM | Cc1nn(C)cc1-c1cc2cccc(-c3nc(C4CCOCC4)n4c3CN(C)C(=O)C4C)c2cn1 (centres unmarked) [Example 87, 1-(3-(1,3-dimethyl-1H-pyrazol-4-yl)isoquinolin-8-yl)-5,7-dimethyl-3-(tetrahydro-2H-pyran-4-yl)-7,8-dihydroimidazo[1,5-a] pyrazin-6(5H)-one] |
| 1 nM | 101 nM | Cc1nn(C)cc1-c1cc2cccc(-c3nc(C4CCOCC4)n4c3CN(C)C(=O)C4C)c2cn1 (centres unmarked) [Example 88, 1-(3-(1,3-dimethyl-1H-pyrazol-4-yl)isoquinolin-8-yl)-5,7-dimethyl-3-(tetrahydro-2H-pyran-4-yl)-7,8-dihydroimidazo[1,5-a] pyrazin-6(5H)-one] |
| 1 nM | 101 nM | C[C@@H]1C(=O)N(C)Cc2c(-c3cccc4nc(-c5ccn(C)n5)c(C(F)F)cc34)nc(C3CCOCC3)n21 [Example 89a, (R)-1-(3-(difluoromethyl)-2-(1-methyl-1H-pyrazol-3-yl)quinolin-5-yl)-5,7-dimethyl-3-(tetrahydro-2H-pyran-4-yl)-7,8-dihydroimidazo[1,5-a] pyrazin-6(5H)-one] |
| 482 nM | 20800 nM | C[C@H]1C(=O)N(C)Cc2c(-c3cccc4nc(-c5ccn(C)n5)c(C(F)F)cc34)nc(C3CCOCC3)n21 [Example 89b, (S)-1-(3-(difluoromethyl)-2-(1-methyl-1H-pyrazol-3-yl)quinolin-5-yl)-5,7-dimethyl-3-(tetrahydro-2H-pyran-4-yl)-7,8-dihydroimidazo[1,5-a] pyrazin-6(5H)-one] |
| 63 nM | 25000 nM | CN1Cc2c(-c3cccc4nc(-c5cnn(C)c5)c(C#N)cc34)nc(C3CCOCC3)n2CC1=O [Example 92, 2-(1-methyl-1H-pyrazol-4-yl)-5-(7-methyl-6-oxo-3-(tetrahydro-2H-pyran-4-yl)-5,6,7,8-tetrahydroimidazo[1,5-a]pyrazin-1-yl)quinoline-3-carbonitrile] |
| 357 nM | 25000 nM | CN1Cc2c(-c3cccc4nc(-c5cnn(C)c5)c(C(F)F)cc34)nc(C3CCOCC3)n2CC1=O [Example 93, 1-(3-(difluoromethyl)-2-(1-methyl-1H-pyrazol-4-yl)quinolin-5-yl)-7-methyl-3-(tetrahydro-2H-pyran-4-yl)-7,8-dihydroimidazo [1,5-a] pyrazin-6(5H)-one] |
| 145 nM | ≥ 25000 nM | CN1Cc2c(-c3cccc4cc(N5CCOCC5)ncc34)nc(C3CCOCC3)n2CC1=O [Example 94, 7-methyl-1-(3-morpholinoisoquinolin-8-yl)-3-(tetrahydro-2H-pyran-4-yl)-7,8-dihydroimidazo[1,5-a] pyrazin-6(5H)-one] |
| 31 nM | 10600 nM | CN1Cc2c(-c3cccc4nc(-c5cnn(C)c5)c(C(F)(F)F)cc34)nc(C3CCOCC3)n2CC1=O [Example 95, 7-methyl-1-(2-(1-methyl-1H-pyrazol-4-yl)-3-(trifluoromethyl)quinolin-5-yl)-3-(tetrahydro-2H-pyran-4-yl)-7,8-dihydroimidazo[1,5-a] pyrazin-6(5H)-one] |
| 181 nM | 12600 nM | Cc1nn(C)cc1-c1cc2cccc(-c3nc(C4CCOCC4)n4c3CN(C)C(=O)C4)c2cn1 [Example 96, 1-(3-(1,3-dimethyl-1H-pyrazol-4-yl)isoquinolin-8-yl)-7-methyl-3-(tetrahydro-2H-pyran-4-yl)-7,8-dihydroimidazo[1,5-a] pyrazin-6(5H)-one] |
| 323 nM | 25000 nM | Cc1nn(C)cc1-c1cc2ccc(F)c(-c3nc(C4CCOCC4)n4c3CN(C)C(=O)C4)c2cn1 [Example 97, 1-(3-(1,3-dimethyl-1H-pyrazol-4-yl)-7-fluoroisoquinolin-8-yl)-7-methyl-3-(tetrahydro-2H-pyran-4-yl)-7,8-dihydroimidazo[1,5-a] pyrazin-6(5H)-one] |
| 45 nM | 18100 nM | CN1Cc2c(-c3cccc4cc(C5CCOCC5)ncc34)nc(C3CCOCC3)n2CC1=O [Example 99, 7-methyl-3-(tetrahydro-2H-pyran-4-yl)-1-(3-(tetrahydro-2H-pyran-4-yl)isoquinolin-8-yl)-7,8-dihydroimidazo[1,5-a] pyrazin-6(5H)-one] |
| 219 nM | 25000 nM | CN1Cc2c(-c3c(F)ccc4cc(C5CCOCC5)ncc34)nc(C3CCOCC3)n2CC1=O [Example 101, 1-(7-fluoro-3-(tetrahydro-2H-pyran-4-yl)isoquinolin-8-yl)-7-methyl-3-(tetrahydro-2H-pyran-4-yl)-7,8-dihydroimidazo[1,5-a] pyrazin-6(5H)-one] |
| 27 nM | 3480 nM | Cc1ccc2cc(-c3ccn(C)n3)ncc2c1-c1nc(C2CCOCC2)n2c1CN(C)C(=O)C2C (centres unmarked) [Example 105, 5,7-dimethyl-1-(7-methyl-3-(1-methyl-1H-pyrazol-3-yl)isoquinolin-8-yl)-3-(tetrahydro-2H-pyran-4-yl)-7,8-dihydroimidazo[1,5-a] pyrazin-6(5H)-one] |
| 9 nM | 5700 nM | CN1Cc2c(N3CCCc4cc(-c5cnn(C)c5)c(C(F)F)cc43)nc(C3CC3)n2CC1=O [Example 106, 3-cyclopropyl-1-(7-(difluoromethyl)-6-(1-methyl-1H-pyrazol-4-yl)-3,4-dihydroquinolin-1(2H)-yl)-7-methyl-7,8-dihydroimidazo[1,5-a] pyrazin-6(5H)-one] |
| 29 nM | 6820 nM | CN1Cc2c(-c3ccc4c(c3)c(-c3cnn(C)c3)nn4C)nc(C3CC3)n2CC1=O [Example 107, 3-cyclopropyl-7-methyl-1-(1-methyl-3-(1-methyl-1H-pyrazol-4-yl)-1H-indazol-5-yl)-7,8-dihydroimidazo [1,5-a] pyrazin-6(5H)-one] |
| 114 nM | 18300 nM | CN1Cc2c(-c3cccc4nc(-c5cnn(C)c5)c(C(F)F)cc34)nc(C3CC3)n2CC1=O [Example 108, 3-cyclopropyl-1-(3-(difluoromethyl)-2-(1-methyl-1H-pyrazol-4-yl)quinolin-5-yl)-7-methyl-7,8-dihydroimidazo[1,5-a] pyrazin-6(5H)-one] |
| 2 nM | 341 nM | CC1C(=O)N(C)Cc2c(-c3cccc4cc(-c5cnn(C)c5)ncc34)nc(C3CCOCC3)n21 (centres unmarked) [Example 109, 5,7-dimethyl-1-(3-(1-methyl-1H-pyrazol-4-yl)isoquinolin-8-yl)-3-(tetrahydro-2H-pyran-4-yl)-7,8-dihydroimidazo[1,5-a] pyrazin-6(5H)-one] |
| 453 nM | 9250 nM | C[C@H]1C(=O)N(C)Cc2c(-c3cccc4nc(-c5cnn(C)c5)c(C(F)F)cc34)nc(C3CC3)n21 [Example 110a, (S)-3-cyclopropyl-1-(3 (difluoromethyl)-2-(1-methyl-1H-pyrazol-4-yl)quinolin-5-yl)-5,7-dimethyl-7,8-dihydroimidazo[1,5-a] pyrazin-6(5H)-one] |
| 1 nM | 407 nM | C[C@@H]1C(=O)N(C)Cc2c(-c3cccc4nc(-c5cnn(C)c5)c(C(F)F)cc34)nc(C3CC3)n21 [Example 110b, (R)-3-cyclopropyl-1-(3 (difluoromethyl)-2-(1-methyl-1H-pyrazol-4-yl)quinolin-5-yl)-5,7-dimethyl-7,8-dihydroimidazo[1,5-a] pyrazin-6(5H)-one] |
